The target in the assay is human plasma kallikrein (Homo sapiens (Human), UniProt P03952). Kind of assay: Plasma Kallikrein Activity Assay (chromogenic substrate S2302). Format: biochemical. Conditions: 2 nM kallikrein, 80 μM S2302, 30° C., pH 7.8; Cheng-Prusoff. In short, it runs like this:
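2 nM human plasma kallikrein incubated at 30° C with 80 μM S2302 and increasing compound concentrations in 50 mM Tris-HCl pH 7.8, 200 mM NaCl, 2.5 mM CaCl2. Activity read as absorbance change at 405 nm; four-parameter logistic fit, Ki by Cheng-Prusoff.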
Chain of human plasma kallikrein (P03952 391-638): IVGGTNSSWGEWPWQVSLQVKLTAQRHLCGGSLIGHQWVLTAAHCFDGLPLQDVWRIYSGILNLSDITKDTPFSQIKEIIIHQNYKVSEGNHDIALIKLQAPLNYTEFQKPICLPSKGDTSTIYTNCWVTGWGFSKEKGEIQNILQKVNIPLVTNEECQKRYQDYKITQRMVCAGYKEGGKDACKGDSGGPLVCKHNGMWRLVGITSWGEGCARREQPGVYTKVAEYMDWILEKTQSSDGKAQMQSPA
Chain of human plasma kallikrein (P03952 20-390 partner): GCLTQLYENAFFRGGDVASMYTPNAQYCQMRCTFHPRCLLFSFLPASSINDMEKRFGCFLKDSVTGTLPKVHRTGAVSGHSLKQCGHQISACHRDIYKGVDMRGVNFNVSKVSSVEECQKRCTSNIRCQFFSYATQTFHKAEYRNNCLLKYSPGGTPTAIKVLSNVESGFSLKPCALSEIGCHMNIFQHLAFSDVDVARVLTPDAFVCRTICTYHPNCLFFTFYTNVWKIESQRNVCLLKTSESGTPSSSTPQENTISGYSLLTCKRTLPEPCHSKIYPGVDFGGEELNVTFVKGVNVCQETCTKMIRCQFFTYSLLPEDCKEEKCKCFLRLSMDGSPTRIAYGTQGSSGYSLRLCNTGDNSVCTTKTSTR
By Ki is commonly meant a dissociation constant, usually derived from enzyme kinetics or from competition with a known ligand. Higher therefore signals lower affinity. Compound `CCCO[C@@H]1C[C@H](C(=O)Nc2cc(C(N)(CCC3CC3)c3ccncc3)ccc2F)N(C(=O)Nc2ccc(Cl)cn2)C1` (stereo partly drawn) [Compound 52d, (2R,4R)-N2-(5-((+)-1-amino-3-cyclopropyl-1-(pyridin-4-yl)propyl)-2-fluorophenyl)-N1-(5-chloropyridin-2-yl)-4-propoxypyrrolidine-1,2-dicarboxamide] showed a Ki below 50 nM. Regarding `NC(CCC1CC1)(c1ccncc1)c1ccc(F)c(NC(=O)[C@H]2CC(F)(F)CN2C(=O)Nc2ccc(Cl)cn2)c1` (stereo partly drawn) [Compound 53d, (R)-N2-(5-((+)-1-amino-3-cyclopropyl-1-(pyridin-4-yl)propyl)-2-fluorophenyl)-N1-(5-chloropyridin-2-yl)-4,4-difluoropyrrolidine-1,2-dicarboxamide], the Ki was below 50 nM. As for `NC(CCC1CC1)(c1ccncc1)c1ccc(F)c(NC(=O)[C@H]2C[C@](O)(C(F)(F)F)CN2C(=O)Nc2ccc(Cl)cn2)c1` (stereo partly drawn) [Compound 54g, (2R,4R)-N2-(5-(1-amino-3-cyclopropyl-1-(pyridin-4-yl)propyl)-2-fluorophenyl)-N1-(5-chloropyridin-2-yl)-4-hydroxy-4-(trifluoromethyl)pyrrolidine-1,2-dicarboxamide], the Ki was below 50 nM. `CCO[C@@H]1C[C@H](C(=O)Nc2cc(C(CCC3CC3)(NS(C)(=O)=O)c3ccncc3)ccc2F)N(C(=O)Nc2ccc(Cl)cn2)C1` (stereo partly drawn) [Compound 55a, (2R,4R)-N1-(5-chloropyridin-2-yl)-N2-(5-((+)-3-cyclopropyl-1-(methylsulfonamido)-1-(pyridin-4-yl)propyl)-2-fluorophenyl)-4-ethoxypyrrolidine-1,2-dicarboxamide] returned a Ki below 50 nM. Turning to `CCO[C@@H]1C[C@H](C(=O)Nc2cc(C(CCC3CC3)(NC(C)=O)c3ccncc3)ccc2F)N(C(=O)Nc2ccc(Cl)cn2)C1` (stereo partly drawn) [Compound 56a, (2R,4R)-N2-(5-((+)-1-acetamido-3-cyclopropyl-1-(pyridin-4-yl)propyl)-2-fluorophenyl)-N1-(5-chloropyridin-2-yl)-4-ethoxypyrrolidine-1,2-dicarboxamide], the Ki was below 50 nM. With `CO[C@]1(C(F)(F)F)C[C@H](C(=O)Nc2cc(C(N)(CCC3CC3)c3ccncc3)ccc2F)N(C(=O)Nc2ccc(Cl)cn2)C1` (stereo partly drawn) [Compound 57d, (2R,4R)-N2-(5-((+)-1-amino-3-cyclopropyl-1-(pyridin-4-yl)propyl)-2-fluorophenyl)-N1-(5-chloropyridin-2-yl)-4-methoxy-4-(trifluoromethyl)pyrrolidine-1,2-dicarboxamide], the Ki was below 50 nM. To `CCO[C@@H]1C[C@H](C(=O)Nc2cc(C(NCC3CC3)c3cccc(C#N)c3)ccc2F)N(C(=O)Nc2ccc(Cl)cn2)C1` (stereo partly drawn) [Compound 58j, (2R,4R)-N1-(5-chloropyridin-2-yl)-N2-(5-((+)-(3-cyanophenyl)(cyclopropylmethylamino)methyl)-2-fluorophenyl)-4-ethoxypyrrolidine-1,2-dicarboxamide] belongs below 50 nM; to `NC(CCC1CC1)(c1ccncc1)c1ccc(F)c(NC(=O)[C@H]2C[C@](O)(C3CC3)CN2C(=O)Nc2ccc(Cl)cn2)c1` (stereo partly drawn) [Compound 59d, (2R,4S)-N2-(5-((+)-1-amino-3-cyclopropyl-1-(pyridin-4-yl)propyl)-2-fluorophenyl)-N1-(5-chloropyridin-2-yl)-4-cyclopropyl-4-hydroxypyrrolidine-1,2-dicarboxamide], below 50 nM. As for `N#Cc1cccc([C@@H](NCC2CC2)c2ccc(F)c(NC(=O)[C@H]3C[C@@H](O)CN3C(=O)Nc3ccc(Cl)cc3)c2)c1` [Compound 60a, (2R,4R)-N1-(4-chlorophenyl)-N2-(5-((R)-(3-cyanophenyl)(cyclopropylmethylamino)methyl)-2-fluorophenyl)-4-hydroxypyrrolidine-1,2-dicarboxamide], the Ki is above 100 nM. Consider `NC(CCC1CC1)(c1ccc(F)c(NC(=O)[C@H]2C[C@@H](O)CN2C(=O)Nc2ccc(Cl)cn2)c1)c1ccccn1` (stereo partly drawn) [Compound 62c, (2R,4R)-N2-(5-((+)-1-amino-3-cyclopropyl-1-(pyridin-2-yl)propyl)-2-fluorophenyl)-N1-(5-chloropyridin-2-yl)-4-hydroxypyrrolidine-1,2-dicarboxamide], for which the Ki was below 50 nM. `N#Cc1ccc(C(N)(CCC2CC2)c2ccc(F)c(NC(=O)[C@H]3C[C@@H](O)CN3C(=O)Nc3ccc(Cl)cc3)c2)cc1` (stereo partly drawn) [Compound 63g, (2R,4R)-N2-(5-((+)-1-amino-1-(4-cyanophenyl)-3-cyclopropylpropyl)-2-fluorophenyl)-N1-(4-chlorophenyl)-4-hydroxypyrrolidine-1,2-dicarboxamide] gave a Ki of 50 to 100 nM. For the compound `NC(CCC1CC1)(c1cccnc1)c1ccc(F)c(NC(=O)[C@H]2C[C@@H](O)CN2C(=O)Nc2ccc(Cl)cc2)c1` (stereo partly drawn) [Compound 64g, (2R,4R)-N2-(5-((+)-1-amino-3-cyclopropyl-1-(pyridin-3-yl)propyl)-2-fluorophenyl)-N1-(4-chlorophenyl)-4-hydroxypyrrolidine-1,2-dicarboxamide], the Ki is below 50 nM.

Turning to `CO[C@@H]1C[C@H](C(=O)Nc2cc(C(N)(CCC3CC3)c3ccccn3)ccc2F)N(C(=O)Nc2ccc(Cl)cc2)C1` (stereo partly drawn) [Compound 65b, (2R,4R)-N2-(5-((+)-1-amino-3-cyclopropyl-1-(pyridin-2-yl)propyl)-2-fluorophenyl)-N1-(4-chlorophenyl)-4-methoxypyrrolidine-1,2-dicarboxamide], the Ki is below 50 nM. `CO[C@@H]1C[C@H](C(=O)Nc2cc(C(CCC3CC3)(N[S@+]([O-])C(C)(C)C)c3ccccc3)ccc2F)N(C(=O)Nc2ccc(Cl)cn2)C1` (stereo partly drawn) [Compound 66c, (2R,4R)-N1-(5-chloropyridin-2-yl)-N2-(5-((+)-3-cyclopropyl-1-((R)-1,1-dimethylethylsulfinamido)-1-phenylpropyl)-2-fluorophenyl)-4-methoxypyrrolidine-1,2-dicarboxamide] gave a Ki above 100 nM. To `CCNC(CCC1CC1)(c1ccccc1)c1ccc(F)c(NC(=O)[C@H]2C[C@@H](OC)CN2C(=O)Nc2ccc(Cl)cn2)c1` (stereo partly drawn) [Compound 67b, (2R,4R)-N1-(5-chloropyridin-2-yl)-N2-(5-((+)-3-cyclopropyl-1-(ethylamino)-1-phenylpropyl)-2-fluorophenyl)-4-methoxypyrrolidine-1,2-dicarboxamide] belongs above 100 nM; to `CC(C)(C)[S@@+]([O-])NC(CCC1CC1)(c1ccncc1)c1ccc(F)c(NC(=O)[C@H]2C[C@@H](O)CN2C(=O)Nc2ccc(Cl)cc2)c1` (stereo partly drawn) [Compound 68a, (2R,4R)-N1-(4-chlorophenyl)-N2-(5-(3-cyclopropyl-1-((R)-1,1-dimethylethylsulfinamido)-1-(pyridin-4-yl)propyl)-2-fluorophenyl)-4-hydroxypyrrolidine-1,2-dicarboxamide], below 50 nM; to `NC(CCC1CC1)(c1ccncc1)c1ccc(F)c(NC(=O)[C@H]2C[C@@H](O)CN2C(=O)Nc2ccc(Cl)cc2)c1` (stereo partly drawn) [Compound 69a, (2R,4R)-N2-(5-((+)-1-amino-3-cyclopropyl-1-(pyridin-4-yl)propyl)-2-fluorophenyl)-N1-(4-chlorophenyl)-4-hydroxypyrrolidine-1,2-dicarboxamide], below 50 nM. With `CO[C@@H]1C[C@H](C(=O)Nc2cc(C(N)(CCC3CC3)c3ccncc3)ccc2F)N(C(=O)Nc2ccc(Cl)cn2)C1` (stereo partly drawn) [Compound 70c, (2R,4R)-N2-(5-((+)-1-amino-3-cyclopropyl-1-(pyridin-4-yl)propyl)-2-fluorophenyl)-N1-(5-chloropyridin-2-yl)-4-methoxypyrrolidine-1,2-dicarboxamide] the figure was below 50 nM.

The record behind these values is patent US10562850B2, “Human plasma kallikrein inhibitors” (priority 2015, dated 2020).
